Where two headings read alike, the source gives them in different places. Marks after values point to notes of the source that are not given here.
Assays:
[1] = test system: CD1 mice; experiment: Anticonvulsant activity, bicuculline induced seizures; assay type: in vivo; details: Mus musculus; po.; read-out: Bicuculline ED50
Experimental: (§1) The anti-seizure activity of some of the compounds of the present invention was measured using the electroshock test (J. Pharmacol. Exp. Ther. 106:319 (1952)) and the results are shown in Table 3. The spasmolytic activity of the compounds of the present invention was investigated by using e.g., pentetrazole (J. Pharmacol. Exp. Ther. 108:168 (1953)), strychnine (J. Pharmacol. Exp. Ther. 129:75 (1960)), bemegrid, nicotine, bicuculline, 4-aminopyridine and mercapto-propionic acid for inducing the clonic-tonic seizures and lethality. The investigated compounds were administered orally in three doses using 10 male CD1 mice/dose, usually 60 min before the induction of seizures.

[2] = test system: AMPA/kainate receptors; experiment: Inhibition of AMPA induced whole-cell current in acutely isolated cerebellar Purkinje cells (patch clamp); assay type: cell-based; details: 5 μM AMPA, read-out: Inhibition of the ion-currents caused by 5 μM AMPA, IC50
Experimental: (§2) In the first model the spreading depression caused by glutamate agonists (i.e., AMPA or kainate) was studied, while in the second one the transmembrane ion-current induced by the activation of the AMPA/kainate receptors was measured directly.
The activity of the compounds of the present invention was studied on acutely isolated cerebellar Purkinje cells by measuring the whole-cell current induced by 5 μM AMPA according for example to the method described by Bleakman et al (Neuropharmacology 12:1689 (1996)).

[3] = test system: CD1 mice; experiment: Anticonvulsant activity, nicotine induced seizures; assay type: in vivo; details: Mus musculus; po.
Experimental: as §1

[4] = test system: CD1 mice; experiment: Muscle relaxant activity, inclined screen test; assay type: in vivo; details: Mus musculus, ip
[5] = test system: Lewis rats; experiment: Autoimmune encephalomyelitis model, histological symptoms; assay type: in vivo; details: 7.5 mg/kg ip., day 24 after immunization
Experimental: (§3) 5-15 animals were used in each group. Their weights were 160-180 g (Lewis rats, female) and 180-220 g (Lewis rats, male). The activity of the compounds was determined according to the symptom score values, and compared to those of the control group (see Table 6). Histopathological investigations were carried out on the brain stem, the spinal cord, and the sciatic nerve (Gijbels et al., J. Clin. Invest. 94:2177 (1994)) using 5-10 animal/group.
(§4) Compounds of the invention were further investigated in the autoimmune encephalomyelitis model in rats as outlined in this description before, with the variance that 10 animals were used in each group, of weights 140-160 g (Lewis rats, female).

[6] = test system: CD1 mice; experiment: Anticonvulsant activity, maximal electroshock seizure (MES) test; assay type: in vivo; details: Mus musculus, po.
Experimental: as §1

[7] = test system: CD1 mice; experiment: Anticonvulsant activity, pentetrazole induced seizures; assay type: in vivo; details: Mus musculus; po.; read-out: Pentetrazol ED50
Experimental: as §1

[8] = test system: CD1 mice; experiment: Anticonvulsant activity, 4-aminopyridine induced seizures; assay type: in vivo; details: Mus musculus; po.; read-out: 4-AP ED50
Experimental: as §1

[9] = test system: Lewis rats; experiment: Autoimmune encephalomyelitis model, neurological (clinical) symptoms; assay type: in vivo; details: for Neurological symptoms (change, %) / change in vivo at 7.5 mg/kg: 7.5 mg/kg ip.; for Neurological symptoms (change, %): day 24 after immunization; for change in vivo at 1.875 mg/kg / change in vivo at 3.75 mg/kg / change in vivo at 7.5 mg/kg: Rattus norvegicus, ip, read-out: Neurological symptoms (change compared to controls, %); for change in vivo at 1.875 mg/kg: 1.875 mg/kg ip.; for change in vivo at 3.75 mg/kg: 3.75 mg/kg ip.
Experimental: as §3, with “The compounds were administered intraperitoneally twice a day for 8 days, starting on day 10 after immunization and with an observation period until symptoms were present. 5-15” for “5-15”
as §4

[10] = test system: CD1 mice; experiment: Anticonvulsant activity, bemegride induced seizures; assay type: in vivo; details: Mus musculus; po.; read-out: Bemegride ED50
Experimental: as §1

[11] = test system: CD1 mice; experiment: Anticonvulsant activity, 3-mercapto-propionic acid induced seizures; assay type: in vivo; details: Mus musculus; po.; read-out: 3-MPA ED50
Experimental: as §1

[12] = test system: CD1 mice; experiment: Anticonvulsant activity, strychnine induced seizures; assay type: in vivo; details: Mus musculus; po.; read-out: Strychnine ED50
Experimental: as §1

[13] = test system: AMPA receptors; experiment: Inhibition of AMPA induced spreading depression in isolated chicken retina; assay type: cell-based; details: AMPA (5 μM)
Experimental: as §2
Inhibition of AMPA Induced “Spreading Depression” in Isolated Chicken Retina—
The AMPA antagonistic effect of the compounds of formula (I) or (II) was studied in the in vitro “spreading depression” model (Sheardown Brain Res. 607:189 (1993)). The AMPA antagonists prolong the latency of the development of the “spreading depression” caused by AMPA (5 μM).

[14] = test system: rats; experiment: Inhibition of focal ischemia, middle cerebral artery occlusion (MCAO) test; assay type: in vivo
Experimental: The focal anti-ischemic activity of the compounds of formula (I) or (II) of the present invention was measured by the “middle cerebral artery occlusion” (MCAO) test (Bartus Stroke 11:2265 (1994) and Sydserff et al, Brit. J. Pharmacol. 114:1631 (1995)). […] After a histological process (TTC staining) 24 h later, the infarcted area was determined by a computer assisted scanner program and was compared to the results obtained in a control group treated with the vehicle.

[15] = test system: CD1 mice; experiment: Muscle relaxant activity, rotarod test; assay type: in vivo; details: Mus musculus, ip
[16] = test system: CD1 mice; experiment: Anti-tremor effect, GYKI 20039 induced tremor; assay type: in vivo; details: Mus musculus; po., Litchfield-Wilcoxon, limits in brackets; read-out: ED50, tremor induced by GYKI 20039 10 mg/kg ip.
[17] = test system: CD1 mice; experiment: Anti-tremor effect, oxotremorine induced tremor; assay type: in vivo; details: Mus musculus; po., Litchfield-Wilcoxon, limits in brackets; read-out: ED50, tremor induced by Oxotremorin 1 mg/kg ip.
[18] = 0.5 h, 30′, read-out: MES 30′ ED50
[19] = 1 h, 60 min before induction, read-out: MES (MES 60′) ED50
[20] = 2 mg/kg iv. 6x in every 30 min, first treatment 180 min after occlusion

SMILES	ED50 [1] [mg/kg]	IC50 [2] [nM]	ED50 [3] [mg/kg]	ED50 [4] [mg/kg]	ED50 [6, 18] [mg/kg]	ED50 [6, 19] [mg/kg]	ED50 [7] [mg/kg]	ED50 [8] [mg/kg]	change in vivo at 3.75 mg/kg ([9]; female rats, 0-8 day) [%]	change in vivo at 3.75 mg/kg ([9]; female rats, 0-14 day) [%]	change in vivo at 3.75 mg/kg ([9]; male rats, 0-8 day) [%]	change in vivo at 3.75 mg/kg ([9]; male rats, 0-14 day) [%]	change in vivo at 7.5 mg/kg ([9]; female rats, 0-8 day) [%]	change in vivo at 7.5 mg/kg ([9]; female rats, 0-14 day) [%]	ED50 [10] [mg/kg]	ED50 [11] [mg/kg]	ED50 [12] [mg/kg]	IC50 [13] [nM]	melting point [°C]	ED50 [15] [mg/kg]	other results
C[C@@H]1Cc2cc3c(cc2C(c2ccc(N)cc2)=NN1c1nccs1)OCO3 [Example 61, (R)-5-(4-Aminophenyl)-8-methyl-7-(2-thiazolyl)-8,9-dihydro-7H-1,3-dioxolo[4,5-h][2,3]benzodiazepine]	31	490	59.3	10.7	11.5	13.1	32.5	17.6	-44	-48	-44	-46	-56	-53	34.4	11	35.4	1000 to 5000	125 to 130	5.4	Histological symptoms (change, %) ([5]; female rats): −5%; Histological symptoms (change, %) ([5]; male rats): −20%; Neurological symptoms (change, %) ([9]; female rats): −53%; Neurological symptoms (change, %) ([9]; male rats): −54%; change in vivo at 1.875 mg/kg ([9]; female rats, 0-8 day): -18%; change in vivo at 1.875 mg/kg ([9]; female rats, 0-14 day): -7%; change in vivo at 1.875 mg/kg ([9]; male rats, 0-8 day): 13%; change in vivo at 1.875 mg/kg ([9]; male rats, 0-14 day): 5%; change in vivo at 7.5 mg/kg ([9]; male rats, 0-8 day): -60%; change in vivo at 7.5 mg/kg ([9]; male rats, 0-14 day): -63%; Activity compared to the reference compound (histopathological and pharmacological investigations) ([9]; result in words): more active than the reference compound GYKI 53773; Decrease of the infracted area in % compared to that of the control ([14]; 1 mg/kg iv. 6x in every 30 min, first treatment 120 min after occlusion): 63** %; Decrease of the infracted area in % compared to that of the control ([14]; 1 mg/kg iv. 6x in every 30 min, first treatment 180 min after occlusion): 16%; Decrease of the infracted area in % compared to that of the control [14, 20]: 46* %; Neuroprotective activity when administered 3 h after the occlusion ([14]; result in words): significant activity
C[C@@H]1Cc2cc3c(cc2C(c2ccc(N)cc2)=NN1C1=NCCS1)OCO3 [Example 69, (R)-5-(4-Aminophenyl)-7-(4,5-dihydro-thiazol-2-yl)-8-methyl-8,9-dihydro-7H-1,3-dioxolo-[4,5-h][2,3]benzodiazepine]	18.1	420	16.8	12.2	8.7	14.7	46.9	16.6	43	58	35	-40	-29	-24	33.3	34.2	27.7	900	148 to 150	1.2	change in vivo at 7.5 mg/kg ([9]; male rats, 0-8 day): -51%; change in vivo at 7.5 mg/kg ([9]; male rats, 0-14 day): -50%; Decrease of the infracted area in % compared to that of the control [14, 20]: 28%
C[C@@H]1Cc2cc3c(cc2C(c2ccc(N)cc2)=NN1c1nncs1)OCO3 [Example 84, (R)-5-(4-Aminophenyl)-8-methyl-7-(1,3,4-thiadiazol-2-yl)-8,9-dihydro-7H-1,3-dioxolo-[4,5-h][2,3]benzodiazepine]	17	90	77.2	12.8	10 to 15	12.5	17.1	16.6							16.7	6.8	18.2	850	219 to 220	1.4	
Cc1nnc(N2N=C(c3ccc(N)cc3)c3cc4c(cc3C[C@H]2C)OCO4)o1 [Example 102, (R)-5-(4-Aminophenyl)-8-methyl-7-(5-methyl-1,3,4-oxadiazol-2-yl)-8,9-dihydro-7H-1,3-dioxolo-[4,5-h][2,3]benzodiazepine]	25.8		31.7	14.8		13.9	35.7	20.4							27.9	> 50	26.7		145 to 149	2.9	
CCc1nnc(N2N=C(c3ccc(N)c(C)c3)c3cc4c(cc3C[C@H]2C)OCO4)s1 [Example 165, (R)-5-(4-Amino-3-methylphenyl)-7-(5-ethyl-1,3,4-thiadiazol-2-yl)-8-methyl-8,9-dihydro-7H-1,3-dioxolo-[4,5-h][2,3]benzodiazepine]	5.79	24	18.6	2.94	2.39	3.99	10.1	8.6							10	8.53	10.2	113	129 to 133	0.91	ED50 [16]: 5.34 mg/kg; ED50 [17]: 4.63 mg/kg
Cc1cc(C2=NN(c3nncs3)[C@H](C)Cc3cc4c(cc32)OCO4)ccc1N [Example 167, (R)-5-(4-Amino-3-methylphenyl)-8-methyl-7-(1,3,4-thiadiazol-2-yl)-8,9-dihydro-7H-1,3-dioxolo-[4,5-h][2,3]benzodiazepine]	12.7	70		4.24	4.78	5.85	9.66	10.8							8.33	10.3	10.5	64	143 to 148	0.8	ED50 [16]: 7.73 mg/kg; ED50 [17]: 4.81 mg/kg

Source: patent US20070027143A1, “Novel substituted 2,3-benzodiazepine derivatives” (priority 2003, published 2007)
